Experiments:
[1] = test system: patient derived organoids; assay: Response / % cell death of patient derived organoids; format: cell-based, human; conditions: for % Cell Death: patient derived organoids treated with the drug
From the text: A few of the above materials, as well as additional drugs were tried for response to patient derived organoids in Table 4, below, which details the % of cell death of the patient derived organoids, when treated with the relevant drug product.

[2] = test system: grade 2 endometrial cancer organoids; assay: Grade 2 endometrial cancer organoid viability, carboplatin alone or with cannabis extract; format: cell-based, human; conditions: carboplatin alone, 50 and 100 μm/mL
[3] = test system: human head and neck cancer organoids; assay: Head and neck cancer organoid viability, cannabis extracts and paclitaxel alone or combined
[4] = test system: patient derived endometrial cancer cells; assay: Patient-derived xenograft (PDX) mouse tumor volume; format: in vivo, mice; conditions: paclitaxel only, 10 mg/kg, 21 days
From the text: All treatment group mice were kept alive for up to 10 weeks after drug injection or until the tumor volume grows bigger than 2500 mm^3.

[5] = cited from earlier work
[6] = molecular target: CYP2C19 enzymes (Homo sapiens, UniProt P33261); conditions: in vitro; cited from earlier work
Chain of CYP2C19 enzymes (P33261 whole entry): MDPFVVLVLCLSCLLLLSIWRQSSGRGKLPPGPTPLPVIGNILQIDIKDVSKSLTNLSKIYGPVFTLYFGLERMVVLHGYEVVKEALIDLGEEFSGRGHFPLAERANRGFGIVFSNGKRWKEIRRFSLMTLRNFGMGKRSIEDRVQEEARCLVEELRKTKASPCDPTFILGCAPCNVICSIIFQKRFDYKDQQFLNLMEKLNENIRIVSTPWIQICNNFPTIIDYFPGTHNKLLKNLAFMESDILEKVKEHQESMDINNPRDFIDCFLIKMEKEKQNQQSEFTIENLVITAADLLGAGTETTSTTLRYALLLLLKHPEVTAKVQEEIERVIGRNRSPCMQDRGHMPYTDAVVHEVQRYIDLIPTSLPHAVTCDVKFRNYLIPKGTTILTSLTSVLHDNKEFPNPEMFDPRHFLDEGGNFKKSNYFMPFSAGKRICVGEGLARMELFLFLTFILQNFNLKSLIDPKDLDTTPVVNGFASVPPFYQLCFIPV

[7] = molecular target: P-glycoprotein (Homo sapiens, UniProt P08183); conditions: in vitro study; cited from earlier work
Chain of P-glycoprotein (P08183 whole entry): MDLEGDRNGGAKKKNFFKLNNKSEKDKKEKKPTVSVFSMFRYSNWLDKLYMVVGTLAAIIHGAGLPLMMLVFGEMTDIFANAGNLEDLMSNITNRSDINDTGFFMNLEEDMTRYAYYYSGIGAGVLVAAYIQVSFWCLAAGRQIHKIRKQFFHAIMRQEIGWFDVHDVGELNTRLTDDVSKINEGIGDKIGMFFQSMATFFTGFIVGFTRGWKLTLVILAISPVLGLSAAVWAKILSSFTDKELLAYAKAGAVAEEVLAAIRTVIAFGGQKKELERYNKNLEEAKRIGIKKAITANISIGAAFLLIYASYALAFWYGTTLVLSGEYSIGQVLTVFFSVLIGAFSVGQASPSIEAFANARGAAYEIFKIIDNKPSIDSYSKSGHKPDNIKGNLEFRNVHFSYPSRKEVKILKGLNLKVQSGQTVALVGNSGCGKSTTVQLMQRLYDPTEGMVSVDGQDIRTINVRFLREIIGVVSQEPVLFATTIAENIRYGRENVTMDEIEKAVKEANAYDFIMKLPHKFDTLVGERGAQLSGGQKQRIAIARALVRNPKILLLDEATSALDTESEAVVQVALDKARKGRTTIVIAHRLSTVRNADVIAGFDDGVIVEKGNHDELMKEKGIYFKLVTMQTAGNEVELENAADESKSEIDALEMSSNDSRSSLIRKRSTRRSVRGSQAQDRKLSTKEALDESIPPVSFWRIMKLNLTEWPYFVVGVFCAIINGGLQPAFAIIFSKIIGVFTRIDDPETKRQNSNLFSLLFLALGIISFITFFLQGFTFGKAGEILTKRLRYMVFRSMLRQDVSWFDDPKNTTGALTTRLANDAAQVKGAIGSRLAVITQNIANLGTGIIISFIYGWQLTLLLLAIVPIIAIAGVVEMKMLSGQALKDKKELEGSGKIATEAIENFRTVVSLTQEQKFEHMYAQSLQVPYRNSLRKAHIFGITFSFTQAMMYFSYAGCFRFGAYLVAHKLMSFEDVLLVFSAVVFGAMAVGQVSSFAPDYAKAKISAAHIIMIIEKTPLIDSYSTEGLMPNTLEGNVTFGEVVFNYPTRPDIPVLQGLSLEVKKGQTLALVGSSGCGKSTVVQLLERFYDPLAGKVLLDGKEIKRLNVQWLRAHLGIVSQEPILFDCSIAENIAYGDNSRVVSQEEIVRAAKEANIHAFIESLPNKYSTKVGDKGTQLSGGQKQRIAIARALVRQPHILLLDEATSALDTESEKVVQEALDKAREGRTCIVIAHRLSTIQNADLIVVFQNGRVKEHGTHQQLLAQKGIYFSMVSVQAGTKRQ

| Compound | % Cell Death [1] | further results |
| --- | --- | --- |
| N.N.O=C([O-])C1(C(=O)[O-])CCC1.[Pt+2] [Carboplatin] | 30% | viability [2]: about 50% |
| C=C(C)[C@@H]1CCC(C)=C[C@H]1c1c(O)cc(CCCCC)cc1O [CBD isolate, cannabidiol] |  | percent viability of head and neck cancer organoids ([3]; 10 μg/mL cannabis extract): effective in reducing the viability of the head and neck cancer organoids significantly |
| CC(=O)O[C@H]1C(=O)[C@@]2(C)[C@H]([C@H](OC(=O)c3ccccc3)[C@]3(O)C[C@H](OC(=O)[C@H](O)[C@@H](NC(=O)c4ccccc4)c4ccccc4)C(C)=C1C3(C)C)[C@]1(OC(C)=O)CO[C@@H]1C[C@@H]2O [Paclitaxel] | 39% | effect on tumor volume [4]: in essence ineffective after an initial reduction at day 10; organoid viability ([3]; human, 14 days, 16 nm/mL): around 60%; organoid viability ([3]; paclitaxel alone, 4 nm/mL): virtually no impact on the organoid viability |
| CCC1=C[C@@H]2CN(C1)Cc1c([nH]c3ccccc13)[C@@](C(=O)OC)(c1cc3c(cc1OC)N(C)[C@H]1[C@@](O)(C(=O)OC)[C@H](OC(C)=O)[C@]4(CC)C=CCN5CC[C@]31[C@@H]54)C2 [Vinorelbine] | 45% |  |
| C=C(C)[C@@H]1CCC(C)=C[C@H]1c1c(O)cc(CCCCC)c(C(=O)O)c1O [CBDA, cannabidiolic acid] |  | percent viability of head and neck cancer organoids ([3]; at least 15 μg/mL CBDA): below 10% |
| COc1cc([C@@H]2c3cc4c(cc3[C@@H](O[C@@H]3O[C@@H]5CO[C@@H](C)O[C@H]5[C@H](O)[C@H]3O)[C@H]3COC(=O)[C@H]23)OCO4)cc(OC)c1O [Etoposide] | 33% |  |
| COc1cccc2c1C(=O)c1c(O)c3c(c(O)c1C2=O)C[C@@](O)(C(=O)CO)C[C@@H]3O[C@H]1C[C@H](N)[C@H](O)[C@H](C)O1 [Doxorubicin] | 39% |  |
| N.N.[Cl][Pt][Cl] [Cisplatin] | 36% |  |
| N[C@@H](Cc1ccc(N(CCCl)CCCl)cc1)C(=O)O [Melphalan] | 40% |  |
| O=P1(N(CCCl)CCCl)NCCCO1 (stereo not drawn) [Cyclosphosphamide] | 32% |  |
| COc1cc2c(cc1O)CCN[C@]21CS[C@@H]2c3c(OC(C)=O)c(C)c4c(c3[C@H](COC1=O)N1[C@@H]2[C@H]2c3c(cc(C)c(OC)c3O)C[C@@H]([C@@H]1O)N2C)OCO4 [Trabectedine] | 32% |  |
| Nc1ccn([C@@H]2O[C@H](CO)[C@@H](O)C2(F)F)c(=O)n1 [Gemcitabine] | 56% |  |
| Bleomycin | 53% |  |
| O=C1c2c(O)ccc(O)c2C(=O)c2c(NCCNCCO)ccc(NCCNCCO)c21 [Mitoxantrone] | 50% |  |
| Cn1nnc2c(C(N)=O)ncn2c1=O [Temozolomide] | 40% |  |
| CN(C)/N=N/c1[nH]cnc1C(N)=O [Dacarbazine] | 32% |  |
| CCCCCc1cc(O)c2c(c1)OC(C)(C)[C@@H]1CCC(C)=C[C@@H]21 [THC, Δ-9-tetrahydrocannabinol] |  | onset to reach peak concentration ([5]; oral THC formulations): ~120 min |
| CCc1c2c(nc3ccc(OC(=O)N4CCC(N5CCCCC5)CC4)cc13)-c1cc3c(c(=O)n1C2)COC(=O)[C@]3(O)CC [Irinotecan] | 51% |  |
| 5-Fluorouaracil/Capecitabine | 61% |  |
| CC[C@]1(O)C[C@@H]2CN(CCc3c([nH]c4ccccc34)[C@@](C(=O)OC)(c3cc4c(cc3OC)N(C)[C@H]3[C@@](O)(C(=O)OC)[C@H](OC(C)=O)[C@]5(CC)C=CCN6CC[C@]43[C@@H]65)C2)C1 [Vinblastine] | 38% |  |
| C=C(C)[C@@H]1CCC(C)=C[C@H]1c1c(O)cc(CCCCC)cc1O [CBD, cannabidiol] |  | inhibition of CYP2C19 [6]: potent inhibitor of CYP2C19 enzymes; organoid response ([1]; organoid of the chemoresistant endometrial cancer patient): significant response; inhibition of P-glycoprotein-mediated drug transport [7]: significantly inhibits P-glycoprotein-mediated drug transport; effect on peak plasma concentrations of CBD ([5]; coadministration of rifampicin (a CYP3A4 inducer)): significantly reduced peak plasma concentrations; effect on peak plasma drug concentrations ([5]; coadministration of the CYP3A4 inhibitor ketoconazole): nearly doubled peak plasma drug concentrations |
| CO[C@H]1C(=O)[C@]2(C)[C@@H](OC)C[C@H]3OC[C@@]3(OC(C)=O)[C@H]2[C@H](OC(=O)c2ccccc2)[C@]2(O)C[C@H](OC(=O)[C@H](O)[C@@H](NC(=O)OC(C)(C)C)c3ccccc3)C(C)=C1C2(C)C [Cabazitaxel] | 37% |  |
